These results are taken from patent US20240218022A1, “ANTI-VISTA MACROCYCLIC PEPTIDES AND COMPOSITIONS” (BRISTOL-MYERS SQUIBB COMPANY, priority 2022, published 2024).

The assay addresses T1, mouse VISTA (mVISTA) (Mus musculus, UniProt Q9D659).
T1 construct: expressed in transfected cells; host or cells: Human embryonic kidney 293T cells
T1 sequence (Q9D659 33-308): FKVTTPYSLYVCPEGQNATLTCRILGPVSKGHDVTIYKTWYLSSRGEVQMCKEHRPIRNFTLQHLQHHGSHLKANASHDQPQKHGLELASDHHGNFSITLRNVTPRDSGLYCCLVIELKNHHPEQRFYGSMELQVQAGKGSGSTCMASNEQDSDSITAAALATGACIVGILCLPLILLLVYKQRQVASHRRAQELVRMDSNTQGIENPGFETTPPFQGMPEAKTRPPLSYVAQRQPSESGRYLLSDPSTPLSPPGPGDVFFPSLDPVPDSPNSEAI
Briefly: Cell-Based Binding High-Content Assay For mVISTA (HC CBA mVISTA). The conditions noted are these: 293T cells expressing mouse VISTA; competition with biotinylated peptide (2 nM); read-out: HC CBA mVISTA IC50. The essentials: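 This high-content binding assay uses HEK293T cells expressing murine VISTA, measuring displacement of 2 nM biotinylated peptide by fluorescent streptavidin imaging. IC50 values come from four-parameter logistic fitting.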

Positions of bridges follow the written chain, without caps; N, C: chain ends. Non-standard residues stand in square brackets, D forms with d. Residues, ends and D or L forms follow the SMILES beside them. Cit = NC(=O)NCCC[C@H](N)C(=O)O; Ahp(2) = CCCCC[C@H](N)C(=O)O; NHexGly = CCCCCCNCC(=O)O; Nle = CCCC[C@H](N)C(=O)O

Take `CCCCCCN1CC(=O)N[C@@H](Cc2ccc(O)cc2)C(=O)N[C@@H](CCCCC)C(=O)N[C@@H](CC(=O)O)C(=O)N[C@@H](CCCNC(=N)N)C(=O)N[C@@H](CC(C)C)C(=O)N[C@@H](CCCCC)C(=O)N2CCC[C@H]2C(=O)N[C@@H](C(C)C)C(=O)N[C@@H](CC(=O)O)C(=O)N[C@H](C(=O)NCC(=O)O)CSCC(=O)N[C@@H](Cc2ccccc2)C(=O)N[C@@H](Cc2ccc(O)cc2)C(=O)N[C@@H](CC(=O)O)C1=O` [Example 1013] ({CH2CO}-FYD[NHexGly]Y[Ahp(2)]DRL[Ahp(2)]PVDCG-OH; thioether N-14): the IC50 was 17.1 nM.

For `CCCCCCN1CC(=O)N[C@@H](Cc2ccc(O)cc2)C(=O)N[C@@H](CC(C)C)C(=O)N[C@@H](CC(=O)O)C(=O)N[C@@H](CCCNC(=N)N)C(=O)N[C@@H](CC(C)C)C(=O)N[C@@H](CCCCC)C(=O)N2CCC[C@H]2C(=O)N[C@@H](C(C)C)C(=O)N[C@@H](CC(=O)O)C(=O)N[C@H](C(=O)NCC(N)=O)CSCC(=O)N[C@@H](Cc2ccccc2)C(=O)N[C@@H](Cc2ccc(O)cc2)C(=O)N[C@@H](CC(=O)O)C1=O` [Example 1014] ({CH2CO}-FYD[NHexGly]YLDRL[Ahp(2)]PVDCG-NH2; thioether N-14), the IC50 is 18.4 nM.

For `CCCCCCN1CC(=O)N[C@@H](Cc2ccc(O)cc2)C(=O)N[C@@H](CCCCC)C(=O)N[C@@H](CC(=O)O)C(=O)N[C@@H](CCCNC(=N)N)C(=O)N[C@@H](CC(C)C)C(=O)N[C@@H](CCCCC)C(=O)N2CCC[C@H]2C(=O)N[C@@H](C(C)C)C(=O)N[C@@H](CC(=O)O)C(=O)N[C@H](C(=O)NCC(N)=O)CSCC(=O)N[C@@H](Cc2ccccc2)C(=O)N[C@@H](Cc2ccc(O)cc2)C(=O)N[C@@H](CC(=O)O)C1=O` [Example 1015] ({CH2CO}-FYD[NHexGly]Y[Ahp(2)]DRL[Ahp(2)]PVDCG-NH2; thioether N-14), the IC50 was 8.7 nM.

For the compound `CCCCCCN1CC(=O)N[C@@H](Cc2ccc(O)cc2)C(=O)N[C@@H](CC(C)C)C(=O)NCC(=O)N[C@@H](CCCNC(=N)N)C(=O)N[C@@H](CC(C)C)C(=O)N[C@@H](CCCCC)C(=O)N2CCC[C@H]2C(=O)N[C@@H](C(C)C)C(=O)N[C@@H](CC(=O)O)C(=O)N[C@H](C(=O)NCC(=O)O)CSCC(=O)N[C@@H](Cc2ccccc2)C(=O)N[C@@H](Cc2ccc(O)cc2)C(=O)N[C@@H](CC(=O)O)C1=O` [Example 1016] ({CH2CO}-FYD[NHexGly]YLGRL[Ahp(2)]PVDCG-OH; thioether N-14), the IC50 is 21 nM.

For `CCCCCCN1CC(=O)N[C@@H](Cc2ccc(O)cc2)C(=O)N[C@@H](CCCC)C(=O)NCC(=O)N[C@@H](CCCNC(=N)N)C(=O)N[C@@H](CC(C)C)C(=O)N[C@@H](CCCCC)C(=O)N2CCC[C@H]2C(=O)N[C@@H](C(C)C)C(=O)N[C@@H](CC(=O)O)C(=O)N[C@H](C(=O)NCC(N)=O)CSCC(=O)N[C@@H](Cc2ccccc2)C(=O)N[C@@H](Cc2ccc(O)cc2)C(=O)N[C@@H](CC(=O)O)C1=O` [Example 1017] ({CH2CO}-FYD[NHexGly]Y[Nle]GRL[Ahp(2)]PVDCG-NH2; thioether N-14), the IC50 stood at 34 nM.

For `CCCCCCN1CC(=O)N[C@@H](Cc2ccc(O)cc2)C(=O)N[C@@H](C(C)C)C(=O)NCC(=O)N[C@@H](CCCNC(=N)N)C(=O)N[C@@H](CC(C)C)C(=O)N[C@@H](CCCCC)C(=O)N2CCC[C@H]2C(=O)N[C@@H](C(C)C)C(=O)N[C@@H](CC(=O)O)C(=O)N[C@H](C(=O)NCC(=O)O)CSCC(=O)N[C@@H](Cc2ccccc2)C(=O)N[C@@H](Cc2ccc(O)cc2)C(=O)N[C@@H](CC(=O)O)C1=O` [Example 1018] ({CH2CO}-FYD[NHexGly]YVGRL[Ahp(2)]PVDCG-OH; thioether N-14), the IC50 is 33.9 nM.

Take `CCCCCCN1CC(=O)N[C@@H](Cc2ccc(O)cc2)C(=O)N[C@@H](CCCC)C(=O)N[C@@H](CC(N)=O)C(=O)N[C@@H](CCCNC(N)=O)C(=O)N[C@@H](CC(C)C)C(=O)N[C@@H](CCCCC)C(=O)N2CCC[C@H]2C(=O)N[C@@H](C(C)C)C(=O)N[C@@H](CC(=O)O)C(=O)N[C@H](C(=O)NCC(=O)O)CSCC(=O)N[C@@H](Cc2ccccc2)C(=O)N[C@@H](Cc2ccc(O)cc2)C(=O)N[C@@H](CC(=O)O)C1=O` [Example 1019] ({CH2CO}-FYD[NHexGly]Y[Nle]N[Cit]L[Ahp(2)]PVDCG-OH; thioether N-14): the IC50 was 7.9 nM.

Turning to `CCCCCCN1CC(=O)N[C@@H](Cc2ccc(O)cc2)C(=O)N[C@@H](CCCC)C(=O)N[C@@H](CC(N)=O)C(=O)N[C@@H](CCCNC(=N)N)C(=O)N[C@@H](CC(C)C)C(=O)N[C@@H](CCCCC)C(=O)N2CCC[C@H]2C(=O)N[C@@H](C(C)C)C(=O)N[C@@H](CC(=O)O)C(=O)N[C@H](C(=O)NCC(=O)O)CSCC(=O)N[C@@H](Cc2ccccc2)C(=O)N[C@@H](Cc2ccc(O)cc2)C(=O)N[C@@H](CC(=O)O)C1=O` [Example 1020] ({CH2CO}-FYD[NHexGly]Y[Nle]NRL[Ahp(2)]PVDCG-OH; thioether N-14), the IC50 is 22.5 nM.

Consider `CCCCCCN1CC(=O)N[C@@H](Cc2ccc(O)cc2)C(=O)N[C@@H](CCCC)C(=O)N[C@@H](CC(=O)O)C(=O)N[C@@H](CCCNC(=N)N)C(=O)N[C@@H](CC(C)C)C(=O)N[C@@H](CCCCC)C(=O)N2CCC[C@H]2C(=O)N[C@@H](C(C)C)C(=O)N[C@@H](CCCCC)C(=O)N[C@H](C(=O)NCC(=O)O)CSCC(=O)N[C@@H](Cc2ccccc2)C(=O)N[C@@H](Cc2ccc(O)cc2)C(=O)N[C@@H](CC(=O)O)C1=O` [Example 1021] ({CH2CO}-FYD[NHexGly]Y[Nle]DRL[Ahp(2)]PV[Ahp(2)]CG-OH; thioether N-14), for which the IC50 came to 32.2 nM.

`CCCCCCN1CC(=O)N[C@@H](Cc2ccc(O)cc2)C(=O)N[C@@H](CCCC)C(=O)NCC(=O)N[C@@H](CCCNC(=N)N)C(=O)N[C@@H](CC(C)C)C(=O)N[C@@H](CCCCC)C(=O)N2CCC[C@H]2C(=O)N[C@@H](C(C)C)C(=O)N[C@@H](CCC(=O)O)C(=O)N[C@H](C(=O)NCC(=O)O)CSCC(=O)N[C@@H](Cc2ccccc2)C(=O)N[C@@H](Cc2ccc(O)cc2)C(=O)N[C@@H](CC(=O)O)C1=O` [Example 1022] ({CH2CO}-FYD[NHexGly]Y[Nle]GRL[Ahp(2)]PVECG-OH; thioether N-14): the 50% inhibitory concentration (IC50) came out at 41.5 nM.

Consider `CCCCCCN1CC(=O)N[C@@H](Cc2ccc(O)cc2)C(=O)N[C@@H](CCCC)C(=O)NCC(=O)N[C@@H](CCCNC(=N)N)C(=O)N[C@@H](CC(C)C)C(=O)N[C@@H](CCCCC)C(=O)N2CCC[C@H]2C(=O)N[C@@H](C(C)C)C(=O)NCC(=O)N[C@H](C(=O)NCC(=O)O)CSCC(=O)N[C@@H](Cc2ccccc2)C(=O)N[C@@H](Cc2ccc(O)cc2)C(=O)N[C@@H](CC(=O)O)C1=O` [Example 1023] ({CH2CO}-FYD[NHexGly]Y[Nle]GRL[Ahp(2)]PVGCG-OH; thioether N-14), for which the IC50 came out at 31 nM.

On to `CCCCCCN1CC(=O)N[C@@H](Cc2ccc(O)cc2)C(=O)N[C@@H](CCCC)C(=O)N[C@@H](CC(=O)O)C(=O)N[C@@H](CCCNC(=N)N)C(=O)N[C@@H](CC(C)C)C(=O)N[C@@H](CCCCC)C(=O)N2CCC[C@H]2C(=O)N[C@@H](C(C)C)C(=O)NCC(=O)N[C@H](C(=O)NCC(=O)O)CSCC(=O)N[C@@H](Cc2ccccc2)C(=O)N[C@@H](Cc2ccc(O)cc2)C(=O)N[C@@H](CC(=O)O)C1=O` [Example 1024] ({CH2CO}-FYD[NHexGly]Y[Nle]DRL[Ahp(2)]PVGCG-OH; thioether N-14), for which the IC50 stood at 13.6 nM.

Consider `CCCCCCN1CC(=O)N[C@@H](Cc2ccc(O)cc2)C(=O)N[C@@H](CCCC)C(=O)N[C@@H](CC(=O)O)C(=O)N[C@@H](CCCNC(=N)N)C(=O)N[C@@H](CC(C)C)C(=O)N[C@@H](CCCCC)C(=O)N2CCC[C@H]2C(=O)N[C@@H](C(C)C)C(=O)N[C@@H](CC(C)C)C(=O)N[C@H](C(=O)NCC(=O)O)CSCC(=O)N[C@@H](Cc2ccccc2)C(=O)N[C@@H](Cc2ccc(O)cc2)C(=O)N[C@@H](CC(=O)O)C1=O` [Example 1025] ({CH2CO}-FYD[NHexGly]Y[Nle]DRL[Ahp(2)]PVLCG-OH; thioether N-14), for which the IC50 was determined as 30.6 nM.

As for `CCCCCCN1CC(=O)N[C@@H](Cc2ccc(O)cc2)C(=O)N[C@@H](CCCCC)C(=O)N[C@@H](CC(N)=O)C(=O)N[C@@H](CCCNC(=N)N)C(=O)N[C@@H](CC(C)C)C(=O)N[C@@H](CCCCC)C(=O)N2CCC[C@H]2C(=O)N[C@@H](C(C)C)C(=O)N[C@@H](CC(N)=O)C(=O)N[C@H](C(=O)NCC(=O)O)CSCC(=O)N[C@@H](Cc2ccccc2)C(=O)N[C@@H](Cc2ccc(O)cc2)C(=O)N[C@@H](CC(=O)O)C1=O` [Example 1026] ({CH2CO}-FYD[NHexGly]Y[Ahp(2)]NRL[Ahp(2)]PVNCG-OH; thioether N-14), the IC50 stood at 5.5 nM.

With `CCCCCCN1CC(=O)N[C@@H](Cc2ccc(O)cc2)C(=O)N[C@@H](CC(C)C)C(=O)N[C@@H](CC(N)=O)C(=O)N[C@@H](CCCNC(=N)N)C(=O)N[C@@H](CC(C)C)C(=O)N[C@@H](CCCCC)C(=O)N2CCC[C@H]2C(=O)N[C@@H](C(C)C)C(=O)N[C@@H](CC(N)=O)C(=O)N[C@H](C(=O)NCC(N)=O)CSCC(=O)N[C@@H](Cc2ccccc2)C(=O)N[C@@H](Cc2ccc(O)cc2)C(=O)N[C@@H](CC(=O)O)C1=O` [Example 1027] ({CH2CO}-FYD[NHexGly]YLNRL[Ahp(2)]PVNCG-NH2; thioether N-14), the IC50 was 36.8 nM.

For the compound `CCCCCCN1CC(=O)N[C@@H](Cc2ccc(O)cc2)C(=O)N[C@@H](CCCC)C(=O)NCC(=O)N[C@@H](CCCNC(=N)N)C(=O)N[C@@H](CC(C)C)C(=O)N[C@@H](CCCCC)C(=O)N2CCC[C@H]2C(=O)N[C@@H](C(C)C)C(=O)N[C@@H](CC(N)=O)C(=O)N[C@H](C(=O)NCC(=O)O)CSCC(=O)N[C@@H](Cc2ccccc2)C(=O)N[C@@H](Cc2ccc(O)cc2)C(=O)N[C@@H](CC(=O)O)C1=O` [Example 1028] ({CH2CO}-FYD[NHexGly]Y[Nle]GRL[Ahp(2)]PVNCG-OH; thioether N-14), the IC50 was found to be 5.2 nM.

A word on the IC50: it is the concentration needed to halve the response being measured.
